Experimental data from US20090054521A1, “ZWITTERIONIC COMPOUNDS AND USE THEREOF” (Evonik Goldschmidt GmbH, priority 2007, published 2009).

Assays:
[1] = test system: skin models (reconstituted human epidermis, SkinEthic); assay: LDH release following damage to the cells with SDS, O/W cream; details: SDS damage for 40 min, no test formulation; total LDH after 24 and 48 h
Protocol: The LDH concentration was determined using a commercially available test kit (LDH test kit, Roche Diagnostics, Mannheim, Germany).
Sodium dodecyl sulphate (SDS) is known to attack the cell membrane and lead to increased LDH release. Using the experiment described below, the aim was to investigate to what extent Compound 2.1 can protect the cells following damage with SDS.
The skin models were damaged with SDS for 40 min. The test formulation, an O/W cream with 1 or 4% of Compound 2.1, was then applied. The LDH release was measured 24 and 48 h after application of the test formulation.

[2] = test system: skin models (reconstituted human epidermis, SkinEthic); assay: Anti-inflammatory effect (IL-1α) of an O/W cream after SDS damage; type: cell-based; details: no test formulation, summed IL-1α after 24 and 48 h
Protocol: IL1-α is a messenger which plays a central role in inflammatory reactions in the body. Sodium lauryl sulphate (SDS) is a skin-irritative surfactant which can cause an irritative contact dermatitis in people, is used as model irritative in subject studies and, inter alia, induces the release of IL-1α. The IL-1α concentration was determined using a commercially available test kit (human IL-1α immunoassay, R&D Systems GmbH, Wiesbaden, Germany).
The aim was to investigate whether the anti-inflammatory effect of the compounds according to the invention is also present upon application from a cosmetic formulation. For this purpose, skin models were damaged with SDS. The test formulation was then applied. 24 and 48 h after the application, the Il-1α concentration was determined.

`CCCCCCCCCCCCOS(=O)(=O)[O-].[Na+]` [SDS, Sodium dodecyl sulphate] was tested, and the “LDH release as a result of the damage” value [1] was “increased greatly” and the “formation of the cytokine IL-1α as a result of the damage” value [2] was “increased greatly”.
